Read-outs that look alike come from different tables or passages of the source.
How the values were obtained:
[1] = target: T1, ATX (recombinant full-length human ATX), PDE activity (Homo sapiens, UniProt Q13822); experiment: Steady-state ATX phosphodiesterase (PDE) activity with pNP-TMP, absorbance 405 nm; assay type: biochemical; settings: substrate pNP-TMP; for Ki: 25° C.
T1 construct: consistent with a mature, glycosylated form of the enzyme; TEV cleavage site (C); 9-His (C); 6-His (C); made in house; host or cells: High Five insect cells (baculovirus, p-DEST-8)
Source text: Protein expression and purification: The full length human NPP2 gene (NCBI accession #BC034961) followed by a C-terminal TEV cleavage site and a 9-His and 6-His purification tag was cloned and transferred into a p-DEST-8 baculovirus shuttle vector (Invitrogen), and bacmid DNA was generated by standard methods. The DNA sequence and correct transposition of the genes was verified by PCR, and recombinant full-length human ATX was expressed in High Five insect cells using standard methods. Three days post infection, the supernatant was adjusted to a final concentration of 50 mM Tris pH 8.0, 5 mM CaCl2, and 1 mM NiSO4 and stirred for 10 min. at room temperature. The resulting precipitant was removed by centrifugation (4,420×g for 30 minutes) and filtration ([…]), and the supernatant was concentrated using a Pall concentration system to approximately 250 mL. The cell media was passed over a nickel affinity column (5 mL, Fastflow resin), equilibrated in binding buffer (20 mM Tris pH 8.0, 300 mM NaCl, 20 mM imidazole, and 20% ethylene glycol) at 4° C., washed with 10 column volumes of binding buffer, and then eluted with binding buffer supplemented with 300 mM imidazole. Purified ATX was concentrated to approximately 10 mg mL^−1, and dialyzed into the appropriate assay buffer.
Steady-state enzyme assays: Phosphodiesterase activity of ATX (75-100 nM) was measured by absorbance (λ=405 nm) on a SpectraMax 250 plate reader at 25° C. with the substrate pNP-TMP [36]. Reactions were run in assay buffer containing 10% DMSO (v/v) and 1 mg mL^−1 BSA (hexachlorophene, merbromin, and bithionol) or without BSA (NSC 48300, 2,2′-Methylenebis(4-chlorophenol), eosin Y, and RJC 03297) in a total volume of […]. The uncatalyzed reaction rate was ≦10^−7 s^−1 (data not shown).
The steady-state rates (v) of product formation were obtained by fitting the time courses of absorbance or fluorescence change to linear functions. Absorbance units were converted to p-nitrophenylate concentration using ε405 of 18.5 mM^−1 cm^−1 [39] and a measured path length of 0.494 cm. FS-3 hydrolysis product formation was quantitated in arbitrary fluorescence units.
(§1) The Michaelis constants (KM) and the catalytic turnover rate constants (kcat) were obtained by fitting the [substrate]-dependence of v to a rectangular hyperbola in the form of the Briggs-Haldane equation: […]
(§2) in which [S] is [pNP-TMP] or [FS-3]. Inhibitors were treated as reversible inhibitors and analyzed according to the general steady-state linear enzyme inhibitor scheme:
(§3) in which E is ATX, S is pNP-TMP or FS-3 substrate, P are the hydrolysis products, and K1 is the dissociation equilibrium constant for inhibitor binding. The values of α and K1 were obtained by fitting the steady-state rates of product formation (v) to the general inhibition equation: […]
(§4) in which [I] is the inhibitor concentration, kcat is the maximum catalytic turnover rate, and KS is the Michaelis constant of the substrate obtained in the absence of inhibitor.
(§5) The type of inhibition (competitive, noncompetitive, or uncompetitive) depends on the value of α.
(§6) The type of inhibition was assigned if the difference between the r^2 values of the fits to the general inhibition equation (Eq 2) and the specific inhibition (i.e. competitive, noncompetitive or uncompetitive) equations was less than 0.01.

[2] = target: T2, ATX (recombinant full-length human ATX), lysoPLD activity (Homo sapiens, UniProt Q13822); experiment: Steady-state ATX lysoPLD activity with fluorescent LPC analogue FS-3; assay type: biochemical; settings: for type of inhibition of ATX lysoPLD activity: substrate FS-3; for Ki: substrate FS-3, 37° C.
T2 construct: consistent with a mature, glycosylated form of the enzyme; TEV cleavage site (C); 9-His (C); 6-His (C); made in house; host or cells: High Five insect cells (baculovirus, p-DEST-8)
Experimental: Protein expression and purification: The full length human NPP2 gene (NCBI accession #BC034961) followed by a C-terminal TEV cleavage site and a 9-His and 6-His purification tag was cloned and transferred into a p-DEST-8 baculovirus shuttle vector (Invitrogen), and bacmid DNA was generated by standard methods. […] Three days post infection, the supernatant was adjusted to a final concentration of 50 mM Tris pH 8.0, 5 mM CaCl2, and 1 mM NiSO4 and stirred for 10 min. at room temperature. […] Purified ATX was concentrated to approximately 10 mg mL^−1, and dialyzed into the appropriate assay buffer.
Fluorescence was measured (λex=485 nm, λem=520 nm) on a SpectraMax Gemini XPS at 37° C. under buffer conditions similar to the PDE assays but lacking BSA. […] The spontaneous reaction rates were subtracted from the enzyme catalyzed rates.
The steady-state rates (v) of product formation were obtained by fitting the time courses of absorbance or fluorescence change to linear functions. […] FS-3 hydrolysis product formation was quantitated in arbitrary fluorescence units.
as §1, §2, §3, §4, §5, §6

[3] = system: human melanoma cell line (A2058); experiment: Boyden chamber cell migration assay, melanoma cells; assay type: cell-based; settings: A2058, 50 nM ATX, 4 hours
Experimental: All cell media was supplemented with 10% (v/v) fetal calf serum (FCS) (Gibco) and 1% (v/v) L-glutamine (Gibco) and grown at 37° C. in a humidified atmosphere containing 5% CO2.
The assay chambers are divided by a gelatin-coated membrane with […] pores (NeuroProbe). […] The chambers were then incubated at 37° C. for 4 hours, after which the filters were removed, fixed in 100% methanol, stained with a DiffQuick solution, and mounted onto glass slides. Non-migrating cells were removed from the membrane by scraping the top surface. The cells were quantitated by counting the cell number per high powered field in the various wells. Treatments were compared using a chi squared test.

[4] = system: Human breast adenocarcinoma cells, MDA-MB-231; experiment: Matrigel cell invasion assay, breast cancer cells; assay type: cell-based; settings: 50 nM ATX
Experimental: Cell culture: Human melanoma cells, A2058 (ATCC), were grown in Dulbecco's Modified Eagle's Medium (DMEM) (Gibco), MeI 28 (ATCC), YUSAC2 (Yale University) and MeI-888 (Yale University) were grown in OptiMEM media (Gibco), and HTB 63 (ATCC) were grown in McKoy's 5a medium (ATCC). Human breast adenocarcinoma cells, MDA-MB-231(ATCC) and ovarian carcinoma cells R182 (Gil Mor, Yale University) were grown in RPMI-1640 (Gibco). All cell media was supplemented with 10% (v/v) fetal calf serum (FCS) (Gibco) and 1% (v/v) L-glutamine (Gibco) and grown at 37° C. in a humidified atmosphere containing 5% CO2.
Cell invasion assays: Matrigel matrix (1 mg/ml, Becton Dickenson) was added to […] gelatin-coated membranes placed in cell culture inserts (BD Falcon) and allowed to set for 24 hours at room temperature. The inserts were placed into companion 24 well plates (BD Falcon), and chemo-attractants (ATX ±inhibitors) and/or controls were added to the bottom of the wells. Cells (1×10^6) were added to the inserts and incubated for 3 hours at 37° C. Following incubation, the inserts were removed, fixed in 100% methanol, stained with DiffQuick solution, and mounted on glass slides. Non-invading cells were removed by scraping away the matrigel, and migrating cells were quantitated by counting cell number per high-powered field.

Row | Structure (SMILES) | type of inhibition of ATX PDE activity [1] | α value from general steady-state inhibition equation (Eq. 2) [1] | Ki ([1]; read-out: KI (dissociation equilibrium constant for inhibitor binding), ATX PDE activity) [µM] | type of inhibition of ATX lysoPLD activity [2] | Ki [2] [µM] | inhibition of ATX-induced stimulation of melanoma cell motility [3] | reduction of ATX-stimulated breast cancer cell invasion [4] | Ki ([1]; competitive inhibition equation (Eq. 3), read-out: KI, ATX PDE activity) [µM]
1 | Oc1c(Cl)cc(Cl)cc1Sc1cc(Cl)cc(Cl)c1O [Bithionol] | mixed, noncompetitive inhibition mechanism | 3.0 (±2.3) | 60 | competitively inhibits | 66 | inhibited in a dose-dependent manner | could be reduced | –
2 | O=[As](O)(O)c1ccc(Cc2ccc([As](=O)(O)O)cc2)cc1 [NSC 48300] | competitive inhibition | – | – | competitively inhibits | 0.24 | inhibited in a dose-dependent manner | could be reduced | 0.0475
